Experimental data from publication PMC8406298, “Discovery of Fungus-Specific Targets and Inhibitors Using Chemical Phenotyping of Pathogenic Spore Germination” (mBio, 2021).

Tests used:
[1] = tested on: normal human dermal fibroblasts (NHDF) cells; assay: Fibroblast cytotoxicity (CellTiter-Glo); format: cell-based; conditions: 10 µM
Description: PrimaPure normal human dermal fibroblasts (NHDF) cells (Genlatis PH10605A) were cultured and passaged in fibroblast growth medium (Genlatis PM116500) according to the manufacturer’s protocol. NHDF cells (1 × 10^3 per well) were plated in a 384-well plate in cell culture medium. The cells were incubated with each compound of interest at 10 μM concentration for 72 h at 37°C and 5% CO2. Following treatment, CellTiter-Glo (Promega) reagent was used to assay ATP-dependent luminescence and thus provide a measure of cell viability. […] For cytotoxicity dose-response curves (Fig. 4C and Fig. 5C), compounds were titrated from 80 μM to 0.5 μM in duplicates.

[2] = tested on: Cryptococcus yeast (CHY3833 and CHY3836); assay: Yeast replication secondary screen (OD600); format: cell-based, Cryptococcus neoformans serotype D (deneoformans); conditions: 10 μM, 12 h at 30°C
Description: (ii) Yeast replication. CHY3833 and CHY3836 were each grown in YPD liquid overnight at 30°C to saturation and then resuspended in 0.5× YPD at an OD600 of 0.005. Strains were aliquoted into 384-well plates with inhibitors and grown for 12 h at 30°C at […] before OD600 readings were taken. Compounds that caused a >10% decrease in growth were considered yeast growth inhibitors.

SMILES	Cytotoxicity: Relative Cell Viability (% of Negative Control) [1]	Yeast Inhibition: % Inhibition [2] [%]
Cc1nc(C)c(C(=O)NCCn2ncc3c(N4CCN(c5ccc(F)cc5)CC4)ncnc32)s1 [compound 42099839]	79.3 % of Negative Control	43.6
O=C(c1cc(-c2ccco2)on1)N1CCC(c2cccs2)CC1 [compound 71786870]	90.1 % of Negative Control	39.7
Cc1cc(C)c2sc(NN)nc2c1 [compound 2049855]	38.9 % of Negative Control	100.6
Cc1cccc2sc(OC3CN(C(=O)Cc4ccc(F)cc4)C3)nc12 [compound 71796286]	99.2 % of Negative Control	3.1
Nc1nc(Cl)cc(Nc2cccc(C(F)(F)F)c2)n1 [compound 42589452]	51.8 % of Negative Control	100.9
Cc1ccc(-c2nnc(Cn3cnc4ccccc43)o2)cc1 [compound 16456942]	69.7 % of Negative Control	57.7
N#Cc1nc2c(nc1C#N)-c1ccccc1C2=O [compound 292929]	5.9 % of Negative Control	100.6
C/C=C/c1ccc(OCCn2cnc3ccccc32)c(OC)c1 [compound 5769972]	97.3 % of Negative Control	79.1
COc1ccc2nc(N3CCCC(C(=O)O)C3)sc2c1 (stereo not drawn) [compound 53212169]	105.4 % of Negative Control	-17.8
OC(COCC12CC3CC(CC(C3)C1)C2)CN1CCc2ccccc2C1 (stereo not drawn) [compound 16456321]	12.1 % of Negative Control	84.7
Clc1ccc2nc(SCCc3ccccc3)[nH]c2c1 [compound 955598]	34.2 % of Negative Control	98.2
O=C(CSCc1ccccc1)N1CCC(c2cccs2)CC1 [compound 71786876]	97.1 % of Negative Control	12.2
O=Cc1sc(=O)n(Cc2ccccc2)c1Cl [compound 820752]	115.4 % of Negative Control	101.8
COc1cc(-c2c(C#N)c(N)nc3c2c(C)nn3-c2ccc(C)cc2)cc(OC)c1OC [compound 4893324]	84.7 % of Negative Control	-3.0
CN(C)S(=O)(=O)N1CCN(CC(O)COc2ccc3cc(Br)ccc3c2)CC1 (stereo not drawn) [compound 2981975]	88.7 % of Negative Control	70.4
NC(=O)c1ccsc1NC(=O)/C=C/c1ccccc1 [compound 6104220]	50.8 % of Negative Control	51.7
O=c1/c(=C/c2ccc(F)cc2F)sc2nc3ccccc3n12 [compound 2354424]	81.4 % of Negative Control	88.9
O=C(CCc1ccccc1Br)N1CCC(c2ccsc2)CC1 [compound 71807075]	93.1 % of Negative Control	9.6
O=S1(=O)CCC(NC(=S)SCc2ccccc2)C1 (stereo not drawn) [compound 2831154]	24.3 % of Negative Control	48.2
CC1CCN(c2ncnc3sccc23)CC1 [compound 2238992]	70.0 % of Negative Control	73.6
O=C(Nc1nc2c(s1)CCc1ccccc1-2)c1ccco1 [compound 701070]	92.9 % of Negative Control	1.7

SMILES	Cytotoxicity: Relative Cell Viability (% of Negative Control) [1]	Yeast Inhibition: % Inhibition [2] [%]
N#CSC1C=CS(=O)(=O)C1 (stereo not drawn) [compound 99741]	40.8 % of Negative Control	49.2
CCOC(=O)N1CCN(C(c2ccccn2)c2c(-c3ccccc3)n(O)c3ccccc23)CC1 (stereo not drawn) [compound 4081132]	84.9 % of Negative Control	101.5
Cc1nc(C)c(C(=O)NCCn2ncc3c(N4CCN(Cc5ccccc5)CC4)ncnc32)s1 [compound 27460748]	112.9 % of Negative Control	22.5
Cc1cc(C)c(S(=O)(=O)Nc2nc(C(F)(F)F)cs2)c(C)c1 [compound 4413055]	49.5 % of Negative Control	9.5
O=C(Nc1nc2ccccc2s1)C1CCCCN1S(=O)(=O)c1ccc(Cl)s1 (stereo not drawn) [compound 16801811]	86.9 % of Negative Control	24.0
Cc1cccc(NC(=O)CC2SC(=O)N(c3ccc(F)cc3)C2=O)c1 (stereo not drawn) [compound 16876071]	86.9 % of Negative Control	58.1
O=C(C1COc2ccccc2O1)N1CCN(c2nc3c(F)cccc3s2)CC1 (stereo not drawn) [compound 16032794]	115.2 % of Negative Control	5.2
O=C(NCc1ccnc(-c2cccs2)c1)c1nc2ccccc2s1 [compound 91630328]	93.3 % of Negative Control	3.0
c1ccc(-c2nc([P+](c3ccccc3)(c3ccccc3)c3ccccc3)c(N3CCCCCC3)o2)cc1 [compound 4345313]	28.8 % of Negative Control	101.2
Fc1ccc(Nc2ccnc3ccc(Cl)cc23)c(F)c1 [compound 17016619]	67.9 % of Negative Control	34.0
O=C(COc1coc(CN2CCc3ccccc32)cc1=O)OCc1ccccc1 [compound 7178481]	88.3 % of Negative Control	15.8
CCn1c(CSc2ccccc2)nc2ccccc21 [compound 2992099]	99.2 % of Negative Control	59.0
Oc1ccc(C2(c3cccc(Cl)c3)CCCC2)cc1 [compound 767639]	96.2 % of Negative Control	74.0
O=C(Cn1c(=O)n(Cc2ccncc2)c(=O)c2ncccc21)Nc1ccc(F)c(Cl)c1 [compound 16951979]	102.8 % of Negative Control	27.1
Cc1ccc(OCCn2c(C)nc3ccccc32)cc1 [compound 790960]	90.6 % of Negative Control	81.4
O=C(CCSc1ccccc1)N1CCC(c2cccs2)CC1 [compound 71786877]	89.8 % of Negative Control	10.0
CC(C)(C)c1ccc(-c2csc(N)n2)cc1 [compound 673711]	86.3 % of Negative Control	94.3
Cc1cc(C(=O)NCC#CCOc2cccc(C(F)(F)F)c2)c(C)o1 [compound 71803023]	90.7 % of Negative Control	44.0
Cc1noc(C)c1C(=O)N1CCN(c2ccc(-c3noc(C(C)C)n3)cn2)CC1 [compound 49701731]	102.2 % of Negative Control	1.4
O=C(c1ccc(OC(F)(F)F)cc1)N(Cc1ccoc1)Cc1cccs1 [compound 71804107]	94.0 % of Negative Control	7.9
Cc1nc(NC2CCCCC2)c2ccsc2n1 [compound 2239015]	75.4 % of Negative Control	45.4
